# Activity calls are given as the source filed them. The rule behind the calls is not given here.
# Experiments:
# [1] = target: Metabotropic glutamate receptor 1 (Homo sapiens) (UniProt Q13255); assay: Negative allosteric modulation of mGlu1 receptor at 10 uM
# [2] = target: Metabotropic glutamate receptor 8 (Homo sapiens) (UniProt O00222); assay: Positive allosteric modulation of mGlu8 receptor at 10 uM
# [3] = test system: Plasma; assay: Plasma concentration in rat at 30 mg/kg, sc; assay type: ADME, organism-based; set-up: dose 30 mg/kg, route subcutaneous; conditions: in vivo
# [4] = Plasma protein binding in rat; assay type: ADME, cell-free; conditions: read-out: PPB (converted)
# [5] = target: T1, Metabotropic glutamate receptor 4 (Homo sapiens, UniProt Q14833); assay: Positive allosteric modulation of human mGlu4 receptor expressed in BHK cells assessed as potentiation of glutamate-induced calcium mobilization by FLIPR analysis relative to PHCCC; assay type: functional, cell-based
# [6] = test system: Brain; assay: Drug uptake in rat brain at 30 mg/kg, sc; assay type: ADME, organism-based; set-up: dose 30 mg/kg, route subcutaneous; conditions: in vivo
# [7] = test system: Brain; assay: Fraction unbound in rat brain; assay type: ADME, tissue-based
# [8] = target: Metabotropic glutamate receptor 7 (Homo sapiens) (UniProt Q14831); assay: Positive allosteric modulation of mGlu7 receptor at 10 uM
# [9] = target: Metabotropic glutamate receptor 7 (Homo sapiens) (UniProt Q14831); assay: Negative allosteric modulation of mGlu7 receptor at 10 uM
# [10] = target: Metabotropic glutamate receptor 2 (Homo sapiens) (UniProt Q14416); assay: Positive allosteric modulation of mGlu2 receptor at 10 uM
# [11] = target: Metabotropic glutamate receptor 6 (Homo sapiens) (UniProt O15303); assay: Negative allosteric modulation of mGlu6 receptor at 10 uM
# [12] = target: Metabotropic glutamate receptor 3 (Homo sapiens) (UniProt Q14832); assay: Agonist activity at mGlu3 receptor at 10 uM; assay type: functional
# [13] = Lipophilicity, log D of compound at pH 7.4; assay type: physicochemical; conditions: buffer
# [14] = target: Metabotropic glutamate receptor 1 (Homo sapiens) (UniProt Q13255); assay: Positive allosteric modulation of mGlu1 receptor at 10 uM
# [15] = Kinetic solubility of the compound at pH 4.0; assay type: physicochemical; conditions: buffer, read-out: Kinetic_solubility
# [16] = target: Metabotropic glutamate receptor 2 (Homo sapiens) (UniProt Q14416); assay: Agonist activity at mGlu2 receptor at 10 uM; assay type: functional
# [17] = target: Metabotropic glutamate receptor 6 (Homo sapiens) (UniProt O15303); assay: Agonist activity at mGlu6 receptor at 10 uM; assay type: functional
# [18] = target: Metabotropic glutamate receptor 3 (Homo sapiens) (UniProt Q14832); assay: Positive allosteric modulation of mGlu3 receptor at 10 uM
# [19] = target: T2, CYP2B6 (Homo sapiens, UniProt P20813); assay: Inhibition of CYP2B6 at 5 uM; assay type: ADME
# T2 sequence (P20813 whole entry): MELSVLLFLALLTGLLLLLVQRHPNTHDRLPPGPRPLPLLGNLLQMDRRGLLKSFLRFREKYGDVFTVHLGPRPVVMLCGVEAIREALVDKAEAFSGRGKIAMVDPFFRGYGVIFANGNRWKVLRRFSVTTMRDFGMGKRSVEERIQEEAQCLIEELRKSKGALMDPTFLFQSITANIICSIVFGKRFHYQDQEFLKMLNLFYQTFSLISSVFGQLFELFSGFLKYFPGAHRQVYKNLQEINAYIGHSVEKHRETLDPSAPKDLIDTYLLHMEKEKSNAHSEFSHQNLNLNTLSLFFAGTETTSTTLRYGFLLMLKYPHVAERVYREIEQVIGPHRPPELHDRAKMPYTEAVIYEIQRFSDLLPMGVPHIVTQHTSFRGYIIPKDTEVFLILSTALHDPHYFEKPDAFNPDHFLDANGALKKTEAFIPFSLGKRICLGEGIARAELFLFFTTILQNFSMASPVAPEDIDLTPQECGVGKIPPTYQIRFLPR
# [20] = target: T1, Metabotropic glutamate receptor 4; assay: Positive allosteric modulation of human mGlu4 receptor expressed in BHK cells assessed as fold shift in calcium mobilization by FLIPR analysis relative to glutamate; assay type: functional, cell-based
# [21] = target: CYP2C9 (Homo sapiens, UniProt P11712); assay: Inhibition of CYP2C9 at 5 uM; assay type: ADME
# [22] = target: Metabotropic glutamate receptor 8 (Homo sapiens) (UniProt O00222); assay: Agonist activity at mGlu8 receptor at 10 uM; assay type: functional
# [23] = target: Metabotropic glutamate receptor 7 (Homo sapiens) (UniProt Q14831); assay: Agonist activity at mGlu7 receptor at 10 uM; assay type: functional
# [24] = target: 5-hydroxytryptamine receptor 2B (Homo sapiens, UniProt P41595); assay: Inhibition of 5HT2B
# [25] = test system: Cerebrospinal fluid; assay: Drug uptake in rat CSF at 30 mg/kg, sc; assay type: ADME, organism-based; set-up: dose 30 mg/kg, route subcutaneous; conditions: in vivo
# [26] = target: T3, Melatonin receptor type 1A (Homo sapiens, UniProt P48039); assay: Agonist activity at MT1 relative to control; assay type: functional
# [27] = species: Rattus norvegicus; assay: Intrinsic clearance in rat; assay type: ADME, organism-based; conditions: in vivo
# [28] = target: Metabotropic glutamate receptor 1 (Homo sapiens) (UniProt Q13255); assay: Agonist activity at mGlu1 receptor at 10 uM; assay type: functional
# [29] = Ratio of drug level in brain to plasma in rat at 30 mg/kg, sc; assay type: ADME, organism-based; set-up: dose 30 mg/kg, route subcutaneous; conditions: read-out: BPR
# [30] = target: Metabotropic glutamate receptor 5 (Homo sapiens) (UniProt P41594); assay: Negative allosteric modulation of mGlu5 receptor at 10 uM
# [31] = target: T3, Melatonin receptor type 1A; assay: Agonist activity at MT1; assay type: functional
# [32] = target: Metabotropic glutamate receptor 8 (Homo sapiens) (UniProt O00222); assay: Negative allosteric modulation of mGlu8 receptor at 10 uM
# [33] = target: Metabotropic glutamate receptor 3 (Homo sapiens) (UniProt Q14832); assay: Negative allosteric modulation of mGlu3 receptor at 10 uM
# [34] = target: Metabotropic glutamate receptor 6 (Homo sapiens) (UniProt O15303); assay: Positive allosteric modulation of mGlu6 receptor at 10 uM
# [35] = target: Voltage-gated inwardly rectifying potassium channel KCNH2 (Homo sapiens, UniProt Q12809); assay: Inhibition of human ERG by electrophysiology assay
# [36] = target: Metabotropic glutamate receptor 5 (Homo sapiens) (UniProt P41594); assay: Positive allosteric modulation of mGlu5 receptor at 10 uM
# [37] = Inhibition of benzodiazepine receptor
# [38] = target: CYP3A4 (Homo sapiens, UniProt P08684); assay: Inhibition of CYP3A4 at 5 uM; assay type: ADME
# [39] = target: Metabotropic glutamate receptor 2 (Homo sapiens) (UniProt Q14416); assay: Negative allosteric modulation of mGlu2 receptor at 10 uM
# [40] = target: T1, Metabotropic glutamate receptor 4; assay: Positive allosteric modulation of human mGlu4 receptor expressed in BHK cells assessed as potentiation of glutamate-induced calcium mobilization by FLIPR analysis; assay type: functional, cell-based
# [41] = target: Metabotropic glutamate receptor 5 (Homo sapiens) (UniProt P41594); assay: Agonist activity at mGlu5 receptor at 10 uM; assay type: functional
# [42] = Kinetic solubility of the compound at pH 7.4; assay type: physicochemical; conditions: buffer, read-out: Kinetic_solubility
# Metabotropic glutamate receptor 5 (Homo sapiens), sequence (P41594 21-1212 limits assumed): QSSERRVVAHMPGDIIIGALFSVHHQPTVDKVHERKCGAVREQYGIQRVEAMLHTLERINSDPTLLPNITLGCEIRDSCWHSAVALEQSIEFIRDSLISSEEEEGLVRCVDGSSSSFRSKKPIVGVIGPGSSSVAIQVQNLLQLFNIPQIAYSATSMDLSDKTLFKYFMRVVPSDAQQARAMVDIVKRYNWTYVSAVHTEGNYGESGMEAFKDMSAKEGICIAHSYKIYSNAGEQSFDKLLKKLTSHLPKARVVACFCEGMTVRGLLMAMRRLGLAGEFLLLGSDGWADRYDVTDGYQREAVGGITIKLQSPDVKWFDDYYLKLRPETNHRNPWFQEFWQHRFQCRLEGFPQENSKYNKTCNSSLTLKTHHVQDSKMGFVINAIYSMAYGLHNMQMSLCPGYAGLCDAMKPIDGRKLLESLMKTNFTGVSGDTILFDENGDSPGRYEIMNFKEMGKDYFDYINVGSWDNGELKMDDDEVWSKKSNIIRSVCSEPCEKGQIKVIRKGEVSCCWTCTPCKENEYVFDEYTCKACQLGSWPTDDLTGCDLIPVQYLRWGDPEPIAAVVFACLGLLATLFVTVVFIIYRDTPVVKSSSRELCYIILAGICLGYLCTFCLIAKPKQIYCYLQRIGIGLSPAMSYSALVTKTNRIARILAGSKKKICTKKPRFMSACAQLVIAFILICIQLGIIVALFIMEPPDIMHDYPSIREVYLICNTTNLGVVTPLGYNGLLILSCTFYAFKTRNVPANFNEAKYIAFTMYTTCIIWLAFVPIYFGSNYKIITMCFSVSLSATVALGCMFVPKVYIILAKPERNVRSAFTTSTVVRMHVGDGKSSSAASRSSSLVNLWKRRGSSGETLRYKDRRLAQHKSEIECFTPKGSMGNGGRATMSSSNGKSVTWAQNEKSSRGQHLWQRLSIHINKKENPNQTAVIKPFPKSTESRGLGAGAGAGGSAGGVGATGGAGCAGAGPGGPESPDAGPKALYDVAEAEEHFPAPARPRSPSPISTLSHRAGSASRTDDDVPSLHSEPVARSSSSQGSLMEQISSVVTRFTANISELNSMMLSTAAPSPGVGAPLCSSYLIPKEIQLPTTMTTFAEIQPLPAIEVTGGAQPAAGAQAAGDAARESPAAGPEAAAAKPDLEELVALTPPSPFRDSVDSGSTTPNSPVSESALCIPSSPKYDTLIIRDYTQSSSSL
# T1 sequence (Q14833 whole entry): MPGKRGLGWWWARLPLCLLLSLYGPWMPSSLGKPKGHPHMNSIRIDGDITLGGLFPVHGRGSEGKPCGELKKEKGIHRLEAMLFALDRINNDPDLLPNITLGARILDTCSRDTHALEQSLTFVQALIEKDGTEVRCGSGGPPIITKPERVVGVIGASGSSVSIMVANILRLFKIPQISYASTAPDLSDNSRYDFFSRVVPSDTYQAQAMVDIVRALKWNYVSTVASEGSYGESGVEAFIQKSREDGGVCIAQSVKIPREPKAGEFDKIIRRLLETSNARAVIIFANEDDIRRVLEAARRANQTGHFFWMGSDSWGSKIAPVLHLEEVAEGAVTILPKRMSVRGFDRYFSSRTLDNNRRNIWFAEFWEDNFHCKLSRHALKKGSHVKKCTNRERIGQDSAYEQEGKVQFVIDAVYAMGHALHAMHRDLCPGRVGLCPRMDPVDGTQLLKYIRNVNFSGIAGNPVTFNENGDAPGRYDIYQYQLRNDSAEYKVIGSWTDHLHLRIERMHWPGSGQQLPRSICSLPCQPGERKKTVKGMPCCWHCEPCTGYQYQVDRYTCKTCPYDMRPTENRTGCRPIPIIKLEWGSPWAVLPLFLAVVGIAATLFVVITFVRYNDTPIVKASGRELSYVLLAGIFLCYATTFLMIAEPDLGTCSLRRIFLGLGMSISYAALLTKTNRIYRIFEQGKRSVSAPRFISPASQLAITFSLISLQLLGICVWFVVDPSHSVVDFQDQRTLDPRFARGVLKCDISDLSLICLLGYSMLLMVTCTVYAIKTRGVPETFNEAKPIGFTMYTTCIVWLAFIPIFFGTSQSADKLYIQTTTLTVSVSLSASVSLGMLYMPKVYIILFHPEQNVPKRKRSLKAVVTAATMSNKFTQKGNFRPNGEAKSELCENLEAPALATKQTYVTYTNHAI
# Metabotropic glutamate receptor 1 (Homo sapiens), sequence (Q13255 19-1194 limits assumed): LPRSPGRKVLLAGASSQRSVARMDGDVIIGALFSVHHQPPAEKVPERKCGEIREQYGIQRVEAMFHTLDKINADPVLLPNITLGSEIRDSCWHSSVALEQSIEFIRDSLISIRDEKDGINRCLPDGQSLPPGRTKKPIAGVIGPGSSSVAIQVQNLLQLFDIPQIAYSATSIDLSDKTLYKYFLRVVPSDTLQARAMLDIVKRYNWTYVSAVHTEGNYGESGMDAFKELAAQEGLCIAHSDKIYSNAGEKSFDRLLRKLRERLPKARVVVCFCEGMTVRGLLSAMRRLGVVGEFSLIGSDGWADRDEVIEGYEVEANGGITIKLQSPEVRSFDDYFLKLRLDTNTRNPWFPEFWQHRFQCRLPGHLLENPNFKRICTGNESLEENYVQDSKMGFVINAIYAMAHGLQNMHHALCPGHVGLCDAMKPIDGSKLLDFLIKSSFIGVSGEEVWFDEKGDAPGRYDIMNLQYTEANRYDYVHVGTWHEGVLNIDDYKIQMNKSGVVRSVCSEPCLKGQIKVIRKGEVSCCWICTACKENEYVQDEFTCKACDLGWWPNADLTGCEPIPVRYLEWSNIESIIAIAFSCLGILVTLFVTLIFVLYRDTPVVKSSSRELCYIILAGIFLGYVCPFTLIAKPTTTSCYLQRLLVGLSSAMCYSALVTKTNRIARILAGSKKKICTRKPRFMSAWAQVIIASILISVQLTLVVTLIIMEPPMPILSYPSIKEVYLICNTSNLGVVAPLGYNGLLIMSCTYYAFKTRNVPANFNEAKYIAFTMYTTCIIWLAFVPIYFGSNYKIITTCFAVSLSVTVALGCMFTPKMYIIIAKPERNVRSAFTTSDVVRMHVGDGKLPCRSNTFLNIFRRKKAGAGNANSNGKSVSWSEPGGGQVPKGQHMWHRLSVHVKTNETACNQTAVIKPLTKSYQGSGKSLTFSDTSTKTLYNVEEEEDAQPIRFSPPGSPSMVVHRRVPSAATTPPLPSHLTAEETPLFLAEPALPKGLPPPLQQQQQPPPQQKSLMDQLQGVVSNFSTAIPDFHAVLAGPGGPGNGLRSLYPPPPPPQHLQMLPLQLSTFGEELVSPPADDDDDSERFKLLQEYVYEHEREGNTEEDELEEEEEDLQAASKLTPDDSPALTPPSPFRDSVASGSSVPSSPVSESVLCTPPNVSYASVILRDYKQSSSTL
# Metabotropic glutamate receptor 3 (Homo sapiens), sequence (Q14832 23-879 limits assumed): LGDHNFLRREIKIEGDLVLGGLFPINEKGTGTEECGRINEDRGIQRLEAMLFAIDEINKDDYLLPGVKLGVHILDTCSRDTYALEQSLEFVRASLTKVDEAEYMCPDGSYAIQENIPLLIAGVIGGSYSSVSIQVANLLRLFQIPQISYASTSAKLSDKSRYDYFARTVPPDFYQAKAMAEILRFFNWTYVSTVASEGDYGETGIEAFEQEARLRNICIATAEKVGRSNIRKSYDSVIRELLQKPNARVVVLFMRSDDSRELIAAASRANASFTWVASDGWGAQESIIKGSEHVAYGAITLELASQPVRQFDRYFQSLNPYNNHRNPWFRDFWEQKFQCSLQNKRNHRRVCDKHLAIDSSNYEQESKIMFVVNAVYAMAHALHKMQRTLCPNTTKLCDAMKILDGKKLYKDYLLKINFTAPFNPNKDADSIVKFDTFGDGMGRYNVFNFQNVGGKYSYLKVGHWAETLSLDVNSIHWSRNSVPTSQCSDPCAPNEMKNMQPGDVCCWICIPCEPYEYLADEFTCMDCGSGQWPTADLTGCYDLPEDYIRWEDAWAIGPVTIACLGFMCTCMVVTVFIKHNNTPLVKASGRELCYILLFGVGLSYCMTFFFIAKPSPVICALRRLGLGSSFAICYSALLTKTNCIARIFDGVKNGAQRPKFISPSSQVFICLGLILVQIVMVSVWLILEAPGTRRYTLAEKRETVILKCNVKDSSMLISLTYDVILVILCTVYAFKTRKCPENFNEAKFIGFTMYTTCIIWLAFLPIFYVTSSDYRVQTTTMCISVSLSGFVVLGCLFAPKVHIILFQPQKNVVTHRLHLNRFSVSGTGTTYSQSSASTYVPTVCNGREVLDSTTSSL
# Metabotropic glutamate receptor 8 (Homo sapiens), sequence (O00222 whole entry): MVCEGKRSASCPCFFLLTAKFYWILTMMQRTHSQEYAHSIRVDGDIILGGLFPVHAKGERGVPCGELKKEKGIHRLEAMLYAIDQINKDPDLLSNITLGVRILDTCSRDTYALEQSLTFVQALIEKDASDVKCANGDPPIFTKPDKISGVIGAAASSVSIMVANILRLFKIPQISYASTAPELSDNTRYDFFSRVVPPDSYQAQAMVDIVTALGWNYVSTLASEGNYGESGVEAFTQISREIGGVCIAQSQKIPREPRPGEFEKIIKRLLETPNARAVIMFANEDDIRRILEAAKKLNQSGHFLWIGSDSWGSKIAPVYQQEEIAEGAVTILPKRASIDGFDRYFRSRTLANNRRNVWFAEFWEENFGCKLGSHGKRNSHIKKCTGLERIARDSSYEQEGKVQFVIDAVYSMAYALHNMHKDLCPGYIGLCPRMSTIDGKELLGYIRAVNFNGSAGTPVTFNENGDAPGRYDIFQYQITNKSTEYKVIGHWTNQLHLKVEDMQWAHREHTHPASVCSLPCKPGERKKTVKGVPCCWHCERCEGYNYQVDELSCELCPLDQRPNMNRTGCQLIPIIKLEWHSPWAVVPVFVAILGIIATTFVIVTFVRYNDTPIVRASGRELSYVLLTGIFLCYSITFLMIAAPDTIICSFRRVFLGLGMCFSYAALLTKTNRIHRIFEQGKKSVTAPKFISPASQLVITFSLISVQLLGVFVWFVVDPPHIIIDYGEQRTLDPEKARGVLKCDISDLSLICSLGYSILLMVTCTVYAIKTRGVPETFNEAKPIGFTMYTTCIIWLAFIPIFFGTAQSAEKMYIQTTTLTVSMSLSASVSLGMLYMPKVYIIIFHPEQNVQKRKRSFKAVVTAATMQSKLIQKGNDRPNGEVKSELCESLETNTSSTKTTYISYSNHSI
smiles,measurement,setting,value
c1ccc(-n2cc(-c3ccnc4ccccc34)cn2)cc1,Activity,[1],inactive
same,Activity,[2],inactive
same,Cp,[3],1886 ng/mL
same,fraction unbound,[4],0.004
same,Emax,[5],105%
same,Drug uptake,[6],5055 ng/g
same,Fu,[7],0.7%
same,Activity,[8],inactive
same,Activity,[9],inactive
same,Activity,[10],inactive
same,Activity,[11],inactive
same,Activity,[12],inactive
same,logD,[13],3.9
same,Activity,[14],inactive
same,solubility kinetic,[15],150 µM
same,Activity,[16],inactive
same,Activity,[17],inactive
same,Activity,[18],inactive
same,inhibition at 5 µM,[19],56%
same,Ratio,[20],12
same,inhibition at 5 µM,[21],48%
same,Activity,[22],inactive
same,Activity,[23],inactive
same,IC50,[24],1600 nM
same,Drug uptake,[25],72 ng/mL
same,Emax,[26],84%
same,CL,[27],550 mL/min
same,Activity,[28],inactive
same,Kp,[29],2.7
same,Activity,[30],inactive
same,EC50,[31],920 nM
same,Activity,[32],inactive
same,Activity,[33],inactive
same,Activity,[34],inactive
same,IC50,[35],2500 nM
same,Activity,[36],inactive
same,IC50,[37],3.1 µM
same,inhibition at 5 µM,[38],38%
same,Activity,[39],inactive
same,EC50,[40],220 nM
same,Activity,[41],inactive
same,solubility kinetic,[42],21 µM

# Reference: ChEMBL document CHEMBL2021760, “4-(1-Phenyl-1H-pyrazol-4-yl)quinolines as novel, selective and brain penetrant metabotropic glutamate receptor 4 positive allosteric modulators” (Bioorg Med Chem Lett, 2012)
